Source: patent publication US9827292B2, “Use of KGF in the treatment of menopausal disorders” (Università degli Studi di Roma “La Sapienza”, priority 2012, dated 2017)

Experiments:
ERalpha = assay: Immunofluorescence localisation of ER in MCF-7 cells; assay type: cell-based, human; details: 5 or 30 min treatment, FIG. 4B
Description: The oestrogen receptor α-positive MCF-7 human breast adenocarcinoma cell line, acquired from American Type Culture Collection (no. HTB-22, ATCC-LGC Promochem, Teddington, UK), was cultured in Dulbecco's modified eagle's medium (DMEM; Invitrogen, Karlsruhe, Germany), supplemented with 10% foetal bovine serum (FBS; Invitrogen) and antibiotics. Primary cultures of human oestrogen-sensitive keratinocytes (KCs) were established from 1 cm^2 full-thickness mucosal biopsy of the vaginal vestibule. […]
The cells, grown on glass coverslips, were treated as described above, then fixed in 4% paraformaldehyde in phosphate-buffered saline (PBS) for 30 min at 25° C., followed by treatment with 0.1 M glycine in PBS for 20 min at 25° C. and with 0.1% Triton X-100 in PBS for an additional 5 min at 25° C. to allow permeabilisation. […] Fluorescence signals were analysed by recording stained images using a cooled CCD colour digital camera SPOT-2 (Diagnostic Instruments Incorporated, Sterling Heights, Mich.) and Axiovision software (Carl Zeiss Inc., Oberkochen, Germany).
The percentage of Ki67-positive cells was evaluated by counting, for each treatment, a total of 500 cells, randomly taken from ten microscopic fields in three different experiments, expressed as mean value±95% CI and recorded as graphs. […]

MAPK ERK1 and 2 = assay: Western blot of ERK phosphorylation in MCF-7 cells; assay type: cell-based, human; details: 20 ng/ml, FIG. 2A; for activation (phosphorylation) of ERK1 and 2: 5 and 30 minutes of treatment
Description: The oestrogen receptor α-positive MCF-7 human breast adenocarcinoma cell line, acquired from American Type Culture Collection (no. HTB-22, ATCC-LGC Promochem, Teddington, UK), was cultured in Dulbecco's modified eagle's medium (DMEM; Invitrogen, Karlsruhe, Germany), supplemented with 10% foetal bovine serum (FBS; Invitrogen) and antibiotics. Primary cultures of human oestrogen-sensitive keratinocytes (KCs) were established from 1 cm^2 full-thickness mucosal biopsy of the vaginal vestibule. Following enzymatic dissociation, the keratinocytes were seeded onto culture plates coated with collagen IV (10 mg/ml), as previously reported [Panici et al, 2007], and were maintained in basal medium of the keratinocytes (KBM, Lonza) supplemented with aliquots of KGM (Lonza), with medium change twice a week. For all the experiments with 17β-oestradiol (E2) and tamoxifen, the MCF-7 cells were cultivated in DMEM without phenol red with 10% FBS treated with dextran/carbon (Invitrogen), and the KCs were transferred to a steroid medium of reduced concentration (KGM without EGF and BPE). Both MCF-7 and KC were deprived of serum for 4 hours and then treated for 48 h with human recombinant KGF (Upstate Biotechnology, Lake Placid, N.Y.), E2 (Sigma-Aldrich, Milan, Italy), tamoxifen (Sigma-Aldrich, 100 nM) or combinations thereof.
MCF-7 cells untreated or treated with KGF or E2 were lysed in RIPA buffer. Total proteins (50-150 μg) were broken down under reducing conditions by 7%-10% SDS-PAGE and transferred to Immobilon-FL membranes (Millipore, Billerica, Mass.). The membranes were blocked in TBS containing 0.5% Tween 20 (TBS-T) and 5% milk for 1 hour at 25° C. and were then washed twice for 20 minutes in each case in TBS-T. The membranes were incubated overnight at 4° C. with the primary antibody. […] The bound antibody was detected by enhanced chemiluminescence detection reagents (Pierce Biotechnology, Inc, Rockford, Ill., USA), according to manufacturer's instructions. […] Densitometric analysis was performed using Quantity One Program (Bio-Rad Laboratories srl, Segrate, MI, Italy).

| Molecule | cellular localisation of ER by immunofluorescence (ERalpha) | activation (phosphorylation) of ERK1 and 2 (MAPK ERK1 and 2) | activation of ERK 1 and 2 at longer times (MAPK ERK1 and 2; 30 min) |
| --- | --- | --- | --- |
| C[C@]12CC[C@@H]3c4ccc(O)cc4CC[C@H]3[C@@H]1CC[C@@H]2O [E2, 17β-oestradiol] | movement of ER in the nucleus | less consistent rise in the levels of phosphorylation of ERK1 and 2 limited to 5 min of treatment | considerably reduced |
| keratinocyte growth factor (protein, listed as Homo sapiens, human recombinant KGF (Upstate Biotechnology)) MHKWILTWILPTLLYRSCFHIICLVGTISLACNDMTPEQMATNVNCSSPERHTRSYDYMEGGDIRVRRLFCRTQWYLRIDKRGKVKGTQEMKNNYNIMEIRTVAVGIVAIKGVESEFYLAMNKEGKLYAKKECNEDCNFKELILENHYNTYASAKWTHNGGEMFVALNQKGIPVRGKKTKKEQKTAHFLPMAIT | unexpected localisation of ER on the plasmatic membrane | consistent and constant activation of MAPK |  |
